Assay results reported in patent US4156777A, “Process for producing glucopyranose-nitrosourea compounds and novel compounds included therein” (Tokyo Tanabe Company, Limited, priority 1977, dated 1979).

Assays:
[1] = known compounds, generally seen; cited from earlier work
[2] = Absorption and excretion of 14C-labelled compounds; format: in vivo, rats; settings: for absorption, in words / excretion rate, intravenous versus oral administration, in words / main route of excretion, in words: rats, 14C-labelled
Description: The carbon atom at the 2-position of the chloroethyl group (i.e. ClCH2 CH2 -) of 6DCNU and 6MCαG was labelled with radioactive ^14 C, and the absorption and excretion of these compounds were tested using rats.

[3] = tested on: various kinds of bacteria; assay: Antibacterial activity (overall statement); format: cell-based; settings: Table VI
Description: Using 6DCNU and 6MCαG, minimum inhibiting concentrations (referred to as "MIC") for various kinds of bacteria were estimated by means of the broth-dilution method.

SMILES | diabetogenic activity, decreasing order [1] | absorption, in words [2] | excretion rate, intravenous versus oral administration, in words [2] | main route of excretion, in words [2] | antibacterial activity, in words [3] | excretion in faeces, comparison in words ([2]; versus 6MCαG) | excretion velocity, comparison in words ([2]; versus 6MCαG) | toxicity inferred from excretion, in words ([2]; versus 6MCαG)
CO[C@H]1O[C@H](CNC(=O)N(CCCl)N=O)[C@@H](O)[C@H](O)[C@H]1O [Example 6MCαG, 1-(2-chloroethyl)-3-(methyl α-D-glucopyranos-6-yl)-1-nitrosourea] | SZ>DCNU>GANU> 2MCαG≈6MCαG | absorbed well | almost the same excretion rates | excreted mainly in the urine | – | – | – | –
O=NN(CCCl)C(=O)NC[C@H]1OC(O)[C@H](O)[C@@H](O)[C@@H]1O (stereo partly drawn) [Example 6DCNU, 3-(D-glucopyranos-6-yl)-1-(2-chloroethyl)-1-nitrosourea] | – | absorbed well | almost the same excretion rates | excreted mainly in the urine | no substantial antibacterial activity | excreted more than 6MCαG in faeces | more rapid than that of 6MCαG | less toxic than 6MCαG
